The results in this text go back to patent US20080255232A1, “Naphthyl Derivatives as Inhibitors of Beta-Amyloid Aggregation” (SIGMA-TAU INDUSTRIE FARMACEUTICHE RIUNITE S.P.A., priority 2005, published 2008).

Structures can show the parent of a compound that is named as a salt. Where two headings read alike, the source gives them in different places.

One data set deals with T1, peptide βA1-42 (Homo sapiens, UniProt P05067).
T1 construct: The β-A(1-42) was dissolved in a mixture of Acetonitrile and distilled water
Kind of data set: Anti-aggregating activity on peptide βA1-42, thioflavin T fluorescence. To be noted: thioflavin T binding, aggregate + non aggregate β-A(1-42), 37° C., 24 hours; read-out: IC50 (dose reducing the aggregate formation of the 50%). The format is biochemical. The protocol:
The anti-aggregating activity of the compound of formula (I) on the peptide βA1-42 is carried out via the binding of the thioflavin T according to the following procedure.
The β-A(1-42) was dissolved in a mixture of Acetonitrile and distilled water (CH3CN/H2O 1:1) to the final concentration of 1 mg/mL. The solution was divided in aliquots of 2 mL and stored at −80° C. until the use. The work solution was prepared diluting the stock solution five times with H2O (final concentration 44 μmol/L).
The β-A(1-42) was dissolved in a mixture of Acetonitrile and distilled water (CH3CN/H2O 1:1) to the final concentration of 1 mg/mL. An aliquot of 2 mL was freeze-dried to eliminate the trifluoroacetic acid residual of the peptide synthesis. The β-A(1-42) peptide was subsequently dissolved in 0.1 mL of DMSO and 5.0 mL of 2×PBS, pH 7.4. Once dissolved the β-A(1-42) was incubated to 37° C. for 8 days, at the end, after sonication, it was diluted five times with 2×PBS (final concentration 17.4 μmol/L). Waiting to be used, the aggregate β-A(1-42) was divided in aliquots and stored at −80° C.
Fluorescence Measurement with Thioflavin T
Scheme of added volumes in 96-well plates:
The assay was performed in triplicate in 96-well plates as reported above in scheme. Test compounds were added in the wells containing the aggregate β-A(1-42) then, 15 after minutes, the non-aggregate β-A(1-42) was added. The 96-well plates were incubated at 37° C. under agitation for 24 hours.
The following day, a volume of 200 μL of a solution containing 10 μmol/L thioflavin T and 50 μmol/L Na2HPO4 pH 6.5 was added to each well. Fluorescence was measured in a VICTOR 2 (WALLAC) fluorescence spectrophotometer (λex=450 nm, λem=486 nm) (Findelis M. A et al).
The data were expressed as percent of residual aggregated β-A and, when possible, the dose reducing the aggregate formation of the 50% (IC50) was estimate.
The % of aggregation was determinated by the following formula:
(βAmyloid+Test compound)−(Blank+Test compound)×100

Data set [1] in a line: Blood brain barrier crossing: plasma and brain concentrations after s.c. injection. The format is in vivo. To be noted: mice, s.c. 25 mg/kg. The protocol:
In order to obtain basic information on the concentration achieved in brain of rodents after parental doses and their relationship with plasma concentrations, mice and rats were used. […] Compounds were determined in plasma by high-performance liquid chromatography (HPLC) after a solid liquid extraction procedure. Briefly, Oasis HLB 1 cc cartridges were pre-wetted with methanol and distilled water. Then internal standard, mouse plasma or rat plasma were added and the cartridges were washed with mater-methanoland methanol, interrupting the vacuum before the column was completely dry after each passage. The compound was removed by eluiting the cartridges with methanol and evaporated to dryness under nitrogen. The residue was dissolved in the mobile phase centrifuged and analyzed by HPLC with UV detection (224 nm).
Separation was done on a pBondapack C18 column protected by a LiChrosphere RP-8 pre-column at room temperature. The mobile phase was CH3CN:CH3OH:0.001M KH2PO4 (40:10:50 v/v) delivered at a flow rate of 1.2 mL/min.
Brain tissue was homogenized (1 g/10 ml) in CH3CN:0.001M phosphate buffer, pH 7.4 and a volume containing approximately 100 mg of tissue was centrifuged. The supernatant was processed as for plasma.
Mean brain and plasma area under the concentration-time curve (AUCt) were determined using the linear trapezoidal rule and extrapolated to infinity (AUC) by the concentration method. The elimination rate constant was calculated by least squares regression analysis of the terminal log-linear portion of the plasma and the brain drug concentration curves. The maximum concentration (Cmax) and the time (tmax) of its occurrence were read directly from the plasma and brain concentration time data.

T1 sequence (P05067 672-713): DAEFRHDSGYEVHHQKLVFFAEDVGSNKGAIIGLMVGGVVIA

As for `Oc1ccc(Sc2ccc(O)c3ccccc23)cc1` [ST3501, 4-[(4-hydroxyphenyl)thio]-1-naphthol], the IC50 at peptide βA1-42 was 7.2 µM.
Same read-out and setting: the same measure for `Oc1ccc(Nc2ccc(O)c3ccccc23)cc1` [ST2177, 4-(4-hydroxyanilino)-1-naphthol]: 1 µM.
In turn, `COc1ccc(Nc2ccc(OC)c3ccccc23)cc1C(=O)O` [ST2174, 2-methoxy-5-[(4-methoxy-1-naphthyl)amino]benzoic acid] returned a melting point of 153 to 154 °C.
For the compound `Oc1ccc(Nc2ccccc2)c2ccccc12` [ST2176, 4-anilino-1-naphthol], on peptide βA1-42, the IC50 is 5.43 µM.
Same read-out and setting: to `COc1ccc2ccccc2c1Nc1c(OC)ccc2ccccc12` [ST2761, 2-methoxy-N-(2-methoxy-1-naphthyl)naphthalen-1-amine] belongs 5.7 µM.
Regarding `COc1ccccc1Nc1ccc(OC)c2ccccc12` [ST2879, N-(4-methoxy-1-naphthyl)-N-(2-methoxyphenyl)amine], the melting point is 108 to 110 °C.
In the case of `COc1ccc(Nc2ccc(OC)c3ccccc23)cc1` [ST2175, 4-methoxy-N-(4-methoxyphenyl)-1-naphthalenamine], the 50% inhibitory concentration (IC50) at peptide βA1-42 turned out to be 5.59 µM. Besides, the “Cmax, Brain” value in data set [1] (brain) is 410 ng/mL or L. The “AUCt, Brain” value in data set [1] (brain, linear trapezoidal rule) was 1643 ng/L · h or g. For the same compound, in data set [1] (mouse, brain, sc, 25 mg/kg, 15 min, read-out: Brain to Plasma ratio), the Kp at 0.25 h amounted to 2.3. Also, the Kp at 0.5 h in data set [1] (mouse, brain, sc, 25 mg/kg, 30 min, read-out: Brain to Plasma ratio) is 3.6. Moreover, the Kp at 1 h in data set [1] (mouse, brain, sc, 25 mg/kg, 60 min, read-out: Brain to Plasma ratio) stood at 2.5. The Kp at 2 h in data set [1] (mouse, brain, sc, 25 mg/kg, 120 min, read-out: Brain to Plasma ratio) was determined as 2. Besides, in data set [1] (mouse, brain, sc, 25 mg/kg, 180 min, read-out: Brain to Plasma ratio), the Kp at 3 h was determined as 1.8. Further, in data set [1] (mouse, brain, sc, 25 mg/kg, 240 min, read-out: Brain to Plasma ratio), the Kp at 4 h amounted to 1.3. The Kp at 6 h in data set [1] (mouse, brain, sc, 25 mg/kg, 360 min, read-out: Brain to Plasma ratio) amounted to 1.7. The Kp turned out to be 1.9 in data set [1] (mouse, brain, sc, 25 mg/kg, read-out: AUCt, Brain to Plasma ratio) and 2.5 in data set [1] (mouse, brain, sc, 25 mg/kg, read-out: Cmax, Brain to Plasma ratio). Also, the concentration at 15 min in data set [1] (mouse, brain, sc, 15 min, read-out: Brain (mean ± SD)) was found to be 321 ± 130 ng/g; in data set [1] (mouse, plasma, sc, 15 min, read-out: Plasma (mean ± SD)), 138 ng/mL. The concentration at 30 min in data set [1] (mouse, brain, sc, 30 min, read-out: Brain (mean ± SD)) worked out at 398 ± 269 ng/g; in data set [1] (mouse, plasma, sc, 30 min, read-out: Plasma (mean ± SD)) it was 109 ng/mL. Besides, the concentration at 60 min in data set [1] (mouse, brain, sc, 60 min, read-out: Brain (mean ± SD)) came out at 410 ± 192 ng/g; in data set [1] (mouse, plasma, sc, 60 min, read-out: Plasma (mean ± SD)) it was 164 ± 18 ng/mL. Also, the concentration at 120 min in data set [1] (mouse, brain, sc, 120 min, read-out: Brain (mean ± SD)) worked out at 289 ± 61 ng/g; in data set [1] (mouse, plasma, sc, 120 min, read-out: Plasma (mean ± SD)) it was 142 ± 16 ng/mL. Further, the concentration at 180 min was determined as 253 ± 77 ng/g in data set [1] (mouse, brain, sc, 180 min, read-out: Brain (mean ± SD)) and 139 ± 31 ng/mL in data set [1] (mouse, plasma, sc, 180 min, read-out: Plasma (mean ± SD)). Moreover, the concentration at 240 min in data set [1] (mouse, brain, sc, 240 min, read-out: Brain (mean ± SD)) worked out at 220 ± 61 ng/g; in data set [1] (mouse, plasma, sc, 240 min, read-out: Plasma (mean ± SD)), 159 ± 38 ng/mL. Besides, the concentration at 360 min in data set [1] (mouse, brain, sc, 360 min, read-out: Brain (mean ± SD)) amounted to 232 ± 94 ng/g; in data set [1] (mouse, plasma, sc, 360 min, read-out: Plasma (mean ± SD)) it was 130 ± 13 ng/mL. The time to peak (Tmax) in data set [1] (mouse, sc, brain, read-out: tmax, Brain (converted)) was 1 h; in data set [1] (mouse, sc, plasma, read-out: tmax, Plasma (converted)) it was 1 h. In addition, the peak level in data set [1] (mouse, sc, plasma) (Cmax) was 164 ng/mL. Further, in data set [1] (mouse, sc, plasma, linear trapezoidal rule, read-out: AUCt, Plasma), the AUC(0-t) amounted to 850 ng·h/mL.
Turning to `Oc1c(Nc2ccccc2)ccc2ccccc12` [ST2762, 1-hydroxy-N-phenylnaphthalen-2-aminiumchloride], the IC50 at peptide βA1-42 was found to be 2.4 µM.
The same measure, in the same setting: to `COc1ccc(Nc2ccc([N+](=O)[O-])c3ccccc23)cc1` [ST3451, N-(4-methoxyphenyl)-4-nitronaphthalen-1-amine] belongs 2.7 µM.
On the same count and under the same terms, the same measure for `CSc1ccc(Nc2ccc(N(C)C)c3ccccc23)cc1` [ST3458, N,N-dimethyl-N′-[4-(methylthio)phenyl]naphthalene-1,4-diamine dihydrochloride]: 2.2 µM.
In turn, `COc1ccc(Nc2ccccc2)c2ccccc12` [ST2173, 4-methoxy-N-phenyl-1-naphthalenamine] gave a melting point of 141 to 143 °C.
In the case of `O=C(O)c1ccccc1Nc1c(O)ccc2ccccc12` [ST2757, 2-[(2-hydroxy-1-naphthyl)amino]benzoic acid], the IC50 at peptide βA1-42 came to 14.1 µM.
Consider `COC(=O)c1ccc(Nc2ccc(O)c3ccccc23)cc1` [ST2178, methyl 4-[(4-hydroxy-1-naphthyl)amino]benzoate], for which the melting point lay within 188 to 190 °C. The IC50 at peptide βA1-42 was 5.13 µM.
With `O=C(O)c1ccc(Nc2ccc3ccccc3c2O)cc1` [ST3459, 4-[(1-hydroxy-2-naphthyl)amino]benzoic acid], the concentration for half-maximal inhibition (IC50) at peptide βA1-42 amounted to 2.6 µM.
On the same count and under the same terms, to `Oc1ccc2ccccc2c1Cc1c(O)ccc2ccccc12` [ST1859, 1-[(2-hydroxy-1-naphthyl)methyl]-2-naphthol, reference compound] belongs 23.5 µM.

Usually IC50 stands for the concentration that gives 50% inhibition. By melting point is commonly meant the temperature, or range, at which the solid turns liquid. In general, Tmax refers to the time at which the peak concentration occurs. What is called Cmax is the peak of the concentration-time curve.
